Measured values as given in patent US9428504B2, “7-hydroxy-spiropipiperidine indolinyl antagonists of P2Y1 receptor” (BRISTOL-MYERS SQUIBB COMPANY, priority 2012, dated 2016).
Where a name gives a salt, the structure may show the parent alone. Read-outs that look alike come from different tables or passages of the source.

Tests used:
[1] = molecular target: cloned human P2Y1 receptors (Homo sapiens (Human), UniProt P47900); assay: Binding Assay B: Scintillation Proximity Assay (SPA) for P2Y1 binding
Summary of the method: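 Scintillation proximity readout of 0.3 nM [^33P] tracer displacement from receptor membranes (~15 fmol receptor, 1.7 μg protein). Binding ran 1 h at room temperature to completion; plates were then centrifuged and aqueous phase aspirated before counting.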

[2] = system: human platelet rich plasma (PRP); assay: ADP induced platelet aggregation assay; conditions: Homo sapiens, Platelet, read-out: PA IC50 (μM) @ 10 μM ADP, platelet aggregation induced by 10 μM ADP, human PRP
[3] = SPA, [33P] 2MeS-ADP displacement, read-out: P2Y1 Ki (nM) using binding assay B

Sequence of cloned human P2Y1 receptors (P47900 whole entry): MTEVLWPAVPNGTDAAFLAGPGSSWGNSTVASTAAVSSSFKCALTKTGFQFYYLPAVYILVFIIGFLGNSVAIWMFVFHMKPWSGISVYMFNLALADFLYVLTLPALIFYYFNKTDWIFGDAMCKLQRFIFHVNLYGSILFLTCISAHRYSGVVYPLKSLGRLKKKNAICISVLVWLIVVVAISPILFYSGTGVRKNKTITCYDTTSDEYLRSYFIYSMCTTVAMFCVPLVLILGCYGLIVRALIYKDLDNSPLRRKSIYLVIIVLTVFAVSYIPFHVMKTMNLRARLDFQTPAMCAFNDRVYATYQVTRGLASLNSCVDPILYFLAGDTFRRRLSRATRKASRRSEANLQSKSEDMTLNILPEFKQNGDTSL

SMILES | Ki [1, 3] | IC50 [2] | Ki [1]
COc1ccc2nc(NC(=O)Nc3ccccc3N3CC4(CCN(CC(C)(C)C)CC4)c4c(C(F)(F)F)ccc(O)c43)sc2c1 [Example 108, 1-(2-(7-Hydroxy-1′-neopentyl-4-(trifluoromethyl)spiro [indoline-3,4′-piperidin]-1-yl)phenyl)-3-(6-methoxybenzo [d]thiazol-2-yl)urea] | 14.5 nM | 0.2 µM | 
CC(C)(C)CN1CCC2(CC1)CN(c1ccccc1NC(=O)Nc1nc3ccc(Cl)cc3s1)c1c(O)ccc(-c3nc4cc(Cl)ccc4s3)c12 [Example 149, 1-(6-Chlorobenzo[d]thiazol-2-yl)-3-(2-(4-(5-chlorobenzo[d]thiazol-2-yl)-7-hydroxy-1′-neopentylspiro[indoline-3,4′-piperidin]-1-yl)phenyl)urea] | 26.8 nM | 0.9 µM | 
CC(C)(C)CN1CCC2(CC1)CN(c1ccccc1NC(=O)Nc1ccc(C(C)(C)C)cc1)c1c(O)ccc(C#N)c12 [Example 82, l-(4-tert-Butylphenyl)-3-(2-(4-cyano-7-hydroxy-1′-neopentylspiro[indoline-3,4′-piperidine]-l-yl)phenyl)urea, trifluoroacetic acid salt] | 24.8 nM | 1 µM | 
CC(C)(C)CN1CCC2(CC1)CN(c1ccccc1NC(=O)Nc1ccc(OC(F)(F)F)cc1)c1c(O)c(F)cc(-c3ccc(F)cc3)c12 [Example 153, 1-(2-(6-Fluoro-4-(4-fluorophenyl)-7-hydroxy-1′-neopentylspiro[indoline-3,4′-piperidin]-1-yl)phenyl)-3-(4-(trifluoromethoxy)phenyl)urea] | 11.5 nM | 0.4 µM | 
CC(C)CN1CCCC1c1ccc(NC(=O)Nc2ccccc2N2CC3(CCN(CC(C)(C)C)CC3)c3c(F)cc(F)c(O)c32)cc1 (stereo not drawn) [Example 99, 1-(2-(4,6-Difluoro-7-hydroxy-1′-neopentylspiro [indoline-3,4′-piperidine]-1-yl)phenyl)-3-(4-(1-isobutylpyrrolidin-2-yl)phenyl)urea] |  | 1.7 µM | 14.2 nM
CC(C)(C)CN1CCC2(CC1)CN(c1ccccc1NC(=O)Nc1nc3ccc(Cl)cc3s1)c1c(O)cc(F)c(-c3ccc(C(F)(F)F)nc3)c12 [Example 162, 1-(6-Chlorobenzo[d]thiazol-2-yl)-3-(2-(5-fluoro-7-hydroxy-1′-neopentyl-4-(6-(trifluoromethyl)pyridin-3-yl)spiro[indoline-3,4′-piperidin]-1-yl)phenyl)urea] | 65.5 nM | 0.5 µM | 
CC(C)(C)CN1CCC2(CC1)CN(c1ccccc1NC(=O)Nc1csc(Cl)n1)c1c(O)ccc(C#N)c12 [Example 85, l-(2-Chlorothiazol-4-yl)-3-(2-(4-cyano-7-hydroxy-1′-neopentylspiro[indoline-3,4′-piperidine]-1-yl)phenyl)urea] | 3.7 nM | 0.4 µM | 
CC(C)C(=O)N1CCc2nc(NC(=O)Nc3ccccc3N3CC4(CCN(CC(C)(C)C)CC4)c4c(Cl)ccc(O)c43)sc2C1 [Example 73, 1-(2-(4-Chloro-7-hydroxy-1′-neopentylspiro[indoline-3,4′-piperidine]-1-yl)phenyl)-3-(5-isobutyryl-4,5,6,7-tetrahydrothiazolo [5,4-c]pyriidn-2-yl)urea] | 17.9 nM | 0.5 µM | 
CC(C)(C)CN1CCC2(CC1)CN(c1ccccc1NC(=O)Nc1nc3ccc(F)cc3s1)c1c(O)ccc(C(F)(F)F)c12 [Example 3, 1-(6-Fluorobenzo[d]thiazol-2-yl)-3-(2-(7-hydroxy-1′-neopentyl-4-(trifluoromethyl)spiro[indoline-3,4′-piperidine]-1-yl)phenyl)urea] | 8.9 nM | 0.1 µM | 
CC(C)(C)CN1CCC2(CC1)CN(c1ccccc1NC(=O)Nc1nc3ccc(F)cc3s1)c1c(O)ccc(C#N)c12 [Example 81, 1-(2-(4-Cyano-7-hydroxy-1′-neopentylspiro[indoline-3,4′-piperidine]-l-yl)phenyl)-3-(6-fluorobenzo[d]thiazol-2-yl) urea, trifluoroacetic acid salt] | 5 nM | 0.6 µM | 
CC(C)(C)CN1CCC2(CC1)CN(c1ncccc1NC(=O)Nc1nc3ccc(F)cc3s1)c1c(O)ccc(Cl)c12 [Example 66, 1-(2-(4-Chloro-7-hydroxy-1′-neopentylspiro[indoline-3,4′-piperidine]-1-yl)pyridin-3-yl)-3-(6-fluorobenzo[d]thiazol-2-yl)urea] | 25.8 nM | 1.2 µM | 
Cc1ccc2nc(NC(=O)Nc3ccccc3N3CC4(CCN(CC(C)(C)C)CC4)c4c(C#N)ccc(O)c43)sc2c1 [Example 84, 1-(2-(4-Cyano-7-hydroxy-1′-neopentylspiro[indoline-3,4′-piperidine]-l-yl)phenyl)-3-(6-methylbenzo[d]thiazol-2-yl) urea, trifluoroacetic acid salt] | 11.8 nM | 0.5 µM | 
COc1ccc2nc(-c3ccc(O)c4c3C3(CCN(CC(C)(C)C)CC3)CN4c3ccccc3NC(=O)Nc3csc(C(F)(F)F)n3)sc2c1 [Example 129, 1-(2-(7-Hydroxy-4-(6-methoxybenzo[d]thiazol-2-yl)-1′-neopentylspiro[indoline-3,4′-piperidin]-1-yl)phenyl)-3-(2-(trifluoromethyl)thiazol-4-yl)urea] | 8.7 nM | 0.7 µM | 
CC(C)(C)CN1CCC2(CC1)CN(c1ccccc1NC(=O)Nc1csc(Cl)n1)c1c(O)ccc(C(F)(F)F)c12 [Example 18, 1-(2-Chlorothiazol-4-yl)-3-(2-(7-hydroxy-1′-neopentyl-4-(trifluoromethyl)spiro[indoline-3,4′-piperidine]-1-yl)phenyl)urea] | 6.2 nM | 0.1 µM | 
CC(C)(C)CN1CCC2(CC1)CN(c1ccccc1NC(=O)Nc1nc3ccc(F)nc3s1)c1c(O)ccc(F)c12 [Example 174, 1-(2-(4-Fluoro-7-hydroxy-1′-neopentylspiro[indoline-3,4′-piperidine]-1-yl)phenyl)-3-(5-fluorothiazolo[5,4-b]pyridin-2-yl)urea] | 7 nM | 0.2 µM | 
CC(C)(C)CN1CCC2(CC1)CN(c1ccccc1NC(=O)Nc1ccc(C(C)(C)C)cc1)c1c2ccc(F)c1O [Example 2, 1-(4-tert-Butylphenyl)-3-(2-(6-fluoro-7-hydroxy-1′-neopentylspiro[indoline-3,4′-piperidine]-1-yl)phenyl)urea] | 9 nM | 0.6 µM | 
CCN(CC)S(=O)(=O)c1ccc(O)c2c1C1(CCN(CC(C)(C)C)CC1)CN2c1ccccc1NC(=O)Nc1nc2ccc(Cl)cc2s1 [Example 92, 1-(2-(3-(6-Chlorobenzo[d]thiazol-2-yl)ureido)phenyl)-N,N-diethyl-7-hydroxy-1′-neopentylspiro[indoline-3,4′-piperidine]-4-sulfonamide] | 15.8 nM | 0.5 µM | 
CC(C)(C)CN1CCC2(CC1)CN(c1ccccc1NC(=O)Nc1ccc(OC(F)(F)F)cc1)c1c(O)cc(F)c(-c3nc4cc(Cl)ccc4s3)c12 [Example 137, 1-(2-(4-(5-Chlorobenzo[d]thiazol-2-yl)-5-fluoro-7-hydroxy-1′-neopentylspiro[indoline-3,4′-piperidin]-1-yl)phenyl)-3-(4-(trifluoromethoxy)phenyl)urea] | 44.7 nM | 0.4 µM | 
